In EP0043274A2, “Antithrombotic treatment” (priority 1980, dated 1982):

Assays:
[1] = test system: thrombus formation in the jugular vein; experiment: I 125 fibrinogen technique, damaged jugular vein (venous thrombosis), continuous infusion; assay type: in vivo, rabbits; conditions: for thrombus formation in the jugular vein (conclusion in words): continuous infusion for five hours
Experimental: The anti venous thrombotic effect of sodium bisulfite is evaluated in rabbits by using I ^125 fibrinogen technique as described in an article in "Archives of Surgery" Vol. 104, pg. 152 (1972).
The rabbit was continuously infused with aqueous sodium bisulfite solution at the rate of […]. (5.154 gram per hour) (animal body weight 2.3 kg) for a time of five hours. After 5 hours, the animal was sacrificed and the radioactive fibrinogen accumulated in the damaged jugular vein was determined. The radioactivity on the contra-lateral (undamaged) jugular vein was also determined to serve as a control. Concurrently, another rabbit had experienced the same procedure but received only a standard sodium chloride solution as a control. The rabbit from the normal saline solution has seven times as much radioactivity as his counterpart infused with sodium bisulfite.
Two jugular veins on a normal, healthy rabbit are exposed and one of the veins is systematically damaged by clamping in two longitudinally spaced places. The rabbit is then continuously infused with aqueous sodium formaldehyde bisulfite at the rate of […] (5.154 gram per hour) (animal body weight 2.3 kg). The rabbit is then injected with fibrinogen labeled with I^125. After 5 hours, the damaged jugular vein is evaluated for radioacive count with a Geiger counter.
This iodine 125 evaluation technique is described by Kakkar in Archieves of Surgery, Vol. 104, pg. 152 (1972) and by Kelton, J.G. et al, Journal of Clinical Investigation, Vol. 62, pgs. 892-895, (1978). […] Other rabbits, similarly evaluated, died, apparently because of overdose by the infustion technique.

human plasma [2] = assay type: biochemical; conditions: for PTT (effect in words): in vitro, 0.5 mg/ml; for PTT REPLICATIONS 1 / PTT REPLICATIONS 3: amine bisulfites; for PTT REPLICATIONS 1: control plasma 37.5 / 38.2; for PTT REPLICATIONS 3: control plasma 37.8 / 39.2
human plasma [3] = assay type: biochemical; conditions: for PT (effect in words): in vitro, 0.5 mg/ml; for PT REPLICATIONS 1 / PT REPLICATIONS 2 / PT REPLICATIONS 3: amine bisulfites; for PT REPLICATIONS 1 / PT REPLICATIONS 2: control plasma 12.8 / 13.1; for PT REPLICATIONS 3: control plasma 13.1 / 13.0
FIBRINOGEN [4] = biological target: T1, FIBRINOGEN (Homo sapiens, UniProt P02671+P02675+P02679); experiment: Coagulation factor assay (Biggs): fibrinogen; assay type: biochemical; conditions: mean of two experiments; control 205
T1 construct: from tissue; host or cells: human plasma
T1 sequence (P02671 20-629 limits assumed): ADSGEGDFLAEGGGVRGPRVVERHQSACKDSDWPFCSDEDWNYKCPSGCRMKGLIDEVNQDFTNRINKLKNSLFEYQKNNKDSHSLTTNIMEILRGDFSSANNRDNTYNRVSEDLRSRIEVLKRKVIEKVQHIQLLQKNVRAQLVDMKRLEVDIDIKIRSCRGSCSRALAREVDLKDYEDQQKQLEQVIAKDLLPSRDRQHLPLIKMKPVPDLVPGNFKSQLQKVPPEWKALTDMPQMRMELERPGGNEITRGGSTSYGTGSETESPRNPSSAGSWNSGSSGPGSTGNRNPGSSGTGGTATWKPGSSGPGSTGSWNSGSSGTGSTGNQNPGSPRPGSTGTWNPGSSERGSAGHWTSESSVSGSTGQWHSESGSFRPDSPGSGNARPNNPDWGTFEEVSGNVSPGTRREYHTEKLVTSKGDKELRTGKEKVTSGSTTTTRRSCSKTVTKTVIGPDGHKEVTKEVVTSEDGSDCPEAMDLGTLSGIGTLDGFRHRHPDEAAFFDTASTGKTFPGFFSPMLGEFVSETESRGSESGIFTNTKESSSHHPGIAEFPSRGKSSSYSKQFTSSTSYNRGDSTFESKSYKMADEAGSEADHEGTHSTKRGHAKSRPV
T1 sequence (P02675 31-491): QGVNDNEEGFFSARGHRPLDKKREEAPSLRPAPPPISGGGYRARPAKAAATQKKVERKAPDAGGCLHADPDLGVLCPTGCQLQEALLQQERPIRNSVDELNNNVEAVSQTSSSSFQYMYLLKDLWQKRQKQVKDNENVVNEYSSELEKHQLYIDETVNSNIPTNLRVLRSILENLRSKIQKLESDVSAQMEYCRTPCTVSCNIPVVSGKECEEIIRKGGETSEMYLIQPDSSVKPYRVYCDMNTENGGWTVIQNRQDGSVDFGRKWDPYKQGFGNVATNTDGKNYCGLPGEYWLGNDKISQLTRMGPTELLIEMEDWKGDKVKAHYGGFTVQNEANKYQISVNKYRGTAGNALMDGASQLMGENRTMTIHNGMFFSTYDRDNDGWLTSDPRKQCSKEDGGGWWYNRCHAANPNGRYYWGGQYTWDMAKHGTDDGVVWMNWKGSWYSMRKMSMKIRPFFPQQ
T1 sequence (P02679 27-453): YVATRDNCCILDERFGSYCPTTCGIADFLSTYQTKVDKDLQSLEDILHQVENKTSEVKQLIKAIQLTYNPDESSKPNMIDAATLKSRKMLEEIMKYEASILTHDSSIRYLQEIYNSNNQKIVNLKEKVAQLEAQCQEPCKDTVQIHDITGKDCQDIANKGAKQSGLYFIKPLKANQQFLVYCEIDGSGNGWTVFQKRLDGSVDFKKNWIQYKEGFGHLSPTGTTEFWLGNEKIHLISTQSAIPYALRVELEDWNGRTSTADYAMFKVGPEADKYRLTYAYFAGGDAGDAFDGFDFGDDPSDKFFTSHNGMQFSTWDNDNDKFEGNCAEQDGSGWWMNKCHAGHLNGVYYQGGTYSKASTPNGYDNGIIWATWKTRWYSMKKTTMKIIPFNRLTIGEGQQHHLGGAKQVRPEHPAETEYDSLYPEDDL
Experimental: (§1) The effect of U.S.P. grade sodium bisulfite on blood coagulation factors is evaluated by standard procedures (Biggs) and the results are shown in Table III below.
(§2) References for PT, PTT, and assays of all the coagulation factors can be found in a standard textbook, entitled "Human Blood Coagulation, Haemostasis and Thrombosis", edited by Rosemary Biggs, published by Blackwell Scientific Publications, Oxford, England (2nd edition), pages 670-705, 1976.

rat plasma = experiment: Blood coagulation tests (PT, PTT, coagulation factors) in vitro; assay type: biochemical; conditions: rat plasma in vitro, 0.5 mg/ml
Text: (§3) The alkali metalbisulfites, sodium and potassium, and ammonium bisulfite are found to prolong PT and PTT in a dose-related fashion.

rabbit plasma = experiment: as above; assay type: biochemical; conditions: rabbit plasma in vitro, 0.5 mg/ml
Text: as §3
The Solution I is found to prolong PT and PTT in a dose related fashion. […] The agent is active in inhibiting various coagulation factors, including factors VII, IX, X, XI, and XII.

FIBRINOGEN [5] = biological target: T1, FIBRINOGEN; experiment: Coagulation factor assay (Biggs): fibrinogen; assay type: biochemical; conditions: mean of 2 experiments; control 205
F IX = biological target: T2, F IX (Homo sapiens, UniProt P00740); experiment: Coagulation factor assay (Biggs): Factor IX; assay type: biochemical; conditions: single experiment; control 50
T2 construct: from tissue; host or cells: human plasma
T2 sequence (P00740 47-461): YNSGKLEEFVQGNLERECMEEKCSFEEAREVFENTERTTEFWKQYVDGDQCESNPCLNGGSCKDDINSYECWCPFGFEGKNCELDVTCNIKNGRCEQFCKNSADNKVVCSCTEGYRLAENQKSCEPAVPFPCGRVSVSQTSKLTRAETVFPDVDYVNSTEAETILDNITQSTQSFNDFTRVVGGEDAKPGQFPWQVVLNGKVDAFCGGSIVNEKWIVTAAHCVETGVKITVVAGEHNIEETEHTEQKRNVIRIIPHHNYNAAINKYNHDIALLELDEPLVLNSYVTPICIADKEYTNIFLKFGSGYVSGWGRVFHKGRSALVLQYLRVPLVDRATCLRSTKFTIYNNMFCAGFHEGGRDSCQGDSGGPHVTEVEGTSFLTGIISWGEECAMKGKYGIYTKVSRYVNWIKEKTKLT
Experimental: as §1, §2

platelet rich plasma = experiment: Platelet aggregation in platelet rich plasma, ADP stimulus (Example 25); assay type: cell-based; conditions: plasma first treated with the compound
Text: Plasma was centrifuged at 1000 r.p.m. (200 g) to prepare a platelet rich plasma. Using adosine diphosphate (ADP) as a stimulous, rapid aggregation of platelets in the plasma was efected. On the other hand, when such plasma is first treatd with (a) tetramethyl ammonium sulfite, (b) tetramethyl ammonium bisulfite, and then (c) tetrabutyl

CCN(CC)CC.O=S(O)O [TRIETHYL AMINE SULFITE, triethyl amine sulfite]
thrombus formation in the jugular vein (conclusion in words) [1]: definite positive antithrombotic effect | MEAN LSD (PTT) (human plasma [2]): 60.6 ± 4.1 s | PTT(Sec) […]. 1 (human plasma [2]): 59.2 s | PTT(Sec) […]. 2 (human plasma [2]): 65.1 s | PTT(Sec) […]. 3 (human plasma [2]): 54.9 s | PTT(Sec) […]. 4 (human plasma [2]): 59.0 s | PTT(Sec) […].5 (human plasma [2]): 64.0 s | MEAN LSD (PT) (human plasma [3]): 16.9 ± 1.1 s | PT(Sec) […]. 1 (human plasma [3]): 17.0 s | PT(Sec) […]. 2 (human plasma [3]): 18.5 s | PT(Sec) […]. 3 (human plasma [3]): 15.4 s | PT(Sec) […]. 4 (human plasma [3]): 16.6 s | PT(Sec) […].5 (human plasma [3]): 16.8 s | Fibrinogen (%) (FIBRINOGEN [4]): 170%

CCCCN(CCCC)CCCC.O=S(O)O [tri-n-butyl amine bisulfite]
thrombus formation in the jugular vein (conclusion in words) [1]: definite positive antithrombotic effect

potassium bisulfite
PT and PTT (effect in words) (rat plasma): significantly prolong | PTT (effect in words) (human plasma [2]): significantly prolong | PT and PTT (effect in words) (rabbit plasma): significantly prolong | PT (effect in words) (human plasma [3]): significantly prolong

OCCNCCO [DIETHANOL AMINE]
thrombus formation in the jugular vein (conclusion in words) [1]: definite positive antithrombotic effect | PTT REPLICATIONS 2 (human plasma [2]): 58.0 | PTT REPLICATIONS 1 (human plasma [2]): 62.6 | PTT REPLICATIONS 3 (human plasma [2]): 60.6 | PT REPLICATIONS 1 (human plasma [3]): 20.6 | PT REPLICATIONS 2 (human plasma [3]): 19.8 | PT REPLICATIONS 3 (human plasma [3]): 19.7

ammonium bisulfite
PT and PTT (effect in words) (rat plasma): significantly prolong | PTT (effect in words) (human plasma [2]): significantly prolong | PT and PTT (effect in words) (rabbit plasma): significantly prolong | PT (effect in words) (human plasma [3]): significantly prolong

CCCC[N+](CCCC)(CCCC)CCCC [tetrabutyl ammonium bisulfite]
radioactivity (I 125 fibrinogen) in damaged jugular vein of saline control rabbit relative to treated rabbit ([1]; continuous infusion .001 mg/kg min (5.154 gram per hour) for five hours): approximately 7 times

CCCCCCCCN.O=S(O)O [n-octyl amine bisulfite]
thrombus formation in the jugular vein (conclusion in words) [1]: definite positive antithrombotic effect

C[N+](C)(C)C [Tetramethyl-ammonium sulfite]
Fibrinogen (%) (FIBRINOGEN [5]): 175% | Factor IX (%) (F IX): 20% | platelet aggregation, adosine diphosphate (ADP) as a stimulous (platelet rich plasma): inhibited

Cl.c1ccncc1 [PYRIDINE HYDROCHLORIDE (CRYSTALS), PYRIDINE HYDROCHLORIDE, reference compound]
PTT 1 (human plasma [2]; HYDROCHLORIDE): 31.3 | PTT 2 (human plasma [2]; HYDROCHLORIDE): 31.1 | PTT 3 (human plasma [2]; HYDROCHLORIDE): 32.2 | PT 1 (human plasma [3]; HYDROCHLORIDE): 12.9 | PT 2 (human plasma [3]; HYDROCHLORIDE): 12.8 | PT 3 (human plasma [3]; HYDROCHLORIDE): 14.0

CN(C)C1CCCCC1 [N,N-DIMETHYL CYCLOHEXYL AMINE]
PTT REPLICATIONS 2 (human plasma [2]): 62.1 | PTT REPLICATIONS 1 (human plasma [2]): 60.1 | PTT REPLICATIONS 3 (human plasma [2]): 58.9 | PT REPLICATIONS 1 (human plasma [3]): 18.9 | PT REPLICATIONS 2 (human plasma [3]): 20.4 | PT REPLICATIONS 3 (human plasma [3]): 19.8
